Assay: Phase I safety assessment: adverse events (CTCAE v5.0) in patients
[1] = Dose Level 3: 200 mg BID (N = 7)
[2] = Dose Level 3d: 150 mg BID (N = 6)
[3] = all treated population, overall

Description: A DLT was defined as a study treatment-related adverse event (TRAE), according to the Common Terminology Criteria for Adverse Events (CTCAE, Version 5.0), with qualifying criteria for certain DLTs (e.g., Grade ≥ 3 diarrhea, was included as a DLT only if lasting >48 h and unresponsive to intensive antidiarrheal medication).
Patients were closely monitored for these potential toxicities during the current study. Safety assessments included recording of AEs and serious AEs (SAEs) from the time of signing the study informed consent form to 30 days after the last dose of study medication. Safety parameters including laboratory evaluations (hematology, coagulation, chemistry, and urinalysis), vital sign measurements and body weight, electrocardiogram (ECG) recordings, ECOG performance status, echocardiogram or multi-gated acquisition (MUGA), and physical examination were assessed at screening, during the study and at 30 days following the last dose. The use of concomitant medications was permitted and details for such medications were recorded.

Structure (SMILES): C=CC(=O)N1CCC[C@@H](n2nc(C(=O)Nc3ccc(CC(=O)N(C)C)c(C)c3C)c3c(N)ncnc32)C1 [TAS0728]
- Dermatitis acneiform, ≥Grade 3 [1]: 0 n (%)
- Diarrhea, Grade 1 [1]: 5 (71.4) n (%)
- Diarrhea, Grade 2 [1]: 5 (71.4) n (%)
- Diarrhea, Grade 3 [1]: 3 (42.9) n (%)
- Diarrhea, Grade 4 [1]: 0 n (%)
- Diarrhea, Grade 5 [1]: 0 n (%)
- Diarrhea, Total [1]: 6 (85.7) n (%)
- Diarrhea, ≥Grade 3 [1]: 3 (42.9) n (%)
- Dry skin, Grade 1 [1]: 2 (28.6) n (%)
- Dry skin, Grade 2 [1]: 0 n (%)
- Dry skin, Grade 3 [1]: 0 n (%)
- Dry skin, Grade 4 [1]: 0 n (%)
- Dry skin, Grade 5 [1]: 0 n (%)
- Dry skin, Total [1]: 2 (28.6) n (%)
- Dry skin, ≥Grade 3 [1]: 0 n (%)
- Fatigue, Grade 1 [1]: 1 (14.3) n (%)
- Fatigue, Grade 2 [1]: 3 (42.9) n (%)
- Fatigue, Grade 3 [1]: 0 n (%)
- Fatigue, Grade 4 [1]: 0 n (%)
- Fatigue, Grade 5 [1]: 0 n (%)
- Fatigue, Total [1]: 3 (42.9) n (%)
- Fatigue, ≥Grade 3 [1]: 0 n (%)
- Hypokalemia, Grade 1 [1]: 2 (28.6) n (%)
- Hypokalemia, Grade 2 [1]: 0 n (%)
- Hypokalemia, Grade 3 [1]: 0 n (%)
- Hypokalemia, Grade 4 [1]: 0 n (%)
- Hypokalemia, Grade 5 [1]: 0 n (%)
- Hypokalemia, Total [1]: 2 (28.6) n (%)
- Hypokalemia, ≥Grade 3 [1]: 0 n (%)
- Nausea, Grade 1 [1]: 1 (14.3) n (%)
- Nausea, Grade 2 [1]: 2 (28.6) n (%)
- Nausea, Grade 3 [1]: 0 n (%)
- Nausea, Grade 4 [1]: 0 n (%)
- Nausea, Grade 5 [1]: 0 n (%)
- Nausea, Total [1]: 2 (28.6) n (%)
- Nausea, ≥Grade 3 [1]: 0 n (%)
- Oedema peripheral, Grade 1 [1]: 2 (28.6) n (%)
- Oedema peripheral, Grade 2 [1]: 0 n (%)
- Oedema peripheral, Grade 3 [1]: 0 n (%)
- Oedema peripheral, Grade 4 [1]: 0 n (%)
- Oedema peripheral, Grade 5 [1]: 0 n (%)
- Oedema peripheral, Total [1]: 2 (28.6) n (%)
- Oedema peripheral, ≥Grade 3 [1]: 0 n (%)
- Pyrexia, Grade 1 [1]: 2 (28.6) n (%)
- Pyrexia, Grade 2 [1]: 1 (14.3) n (%)
- Pyrexia, Grade 3 [1]: 0 n (%)
- Pyrexia, Grade 4 [1]: 0 n (%)
- Pyrexia, Grade 5 [1]: 0 n (%)
- Pyrexia, Total [1]: 3 (42.9) n (%)
- Pyrexia, ≥Grade 3 [1]: 0 n (%)
- Vomiting, Grade 1 [1]: 1 (14.3) n (%)
- Vomiting, Grade 2 [1]: 1 (14.3) n (%)
- Vomiting, Grade 3 [1]: 0 n (%)
- Vomiting, Grade 4 [1]: 0 n (%)
- Vomiting, Grade 5 [1]: 0 n (%)
- Vomiting, Total [1]: 2 (28.6) n (%)
- Vomiting, ≥Grade 3 [1]: 0 n (%)
- Adverse events experienced in ≥10% patients, Grade 1 [2]: 5 (83.3) n (%)
- Adverse events experienced in ≥10% patients, Grade 2 [2]: 5 (83.3) n (%)
- Adverse events experienced in ≥10% patients, Grade 3 [2]: 3 (50.0) n (%)
- Adverse events experienced in ≥10% patients, Grade 4 [2]: 0 n (%)
- Adverse events experienced in ≥10% patients, Grade 5 [2]: 1 (16.7) n (%)
- Adverse events experienced in ≥10% patients, Total [2]: 6 (100) n (%)
- Adverse events experienced in ≥10% patients, ≥Grade 3 [2]: 3 (50.0) n (%)
- Back pain, Grade 1 [2]: 1 (16.7) n (%)
- Back pain, Grade 2 [2]: 1 (16.7) n (%)
- Back pain, Grade 3 [2]: 0 n (%)
- Back pain, Grade 4 [2]: 0 n (%)
- Back pain, Grade 5 [2]: 0 n (%)
- Back pain, Total [2]: 2 (33.3) n (%)
- Back pain, ≥Grade 3 [2]: 0 n (%)
- Diarrhea, Grade 1 [2]: 2 (33.3) n (%)
- Diarrhea, Grade 2 [2]: 1 (16.7) n (%)
- Diarrhea, Grade 3 [2]: 2 (33.3) n (%)
- Diarrhea, Grade 4 [2]: 0 n (%)
- Diarrhea, Grade 5 [2]: 0 n (%)
- Diarrhea, Total [2]: 4 (66.7) n (%)
- Diarrhea, ≥Grade 3 [2]: 2 (33.3) n (%)
- Pyrexia, Grade 1 [2]: 0 n (%)
- Pyrexia, Grade 2 [2]: 2 (33.3) n (%)
- Pyrexia, Grade 3 [2]: 0 n (%)
- Pyrexia, Grade 4 [2]: 0 n (%)
- Pyrexia, Grade 5 [2]: 0 n (%)
- Pyrexia, Total [2]: 2 (33.3) n (%)
- Pyrexia, ≥Grade 3 [2]: 0 n (%)
- Vomiting, Grade 1 [2]: 2 (33.3) n (%)
- Vomiting, Grade 2 [2]: 0 n (%)
- Vomiting, Grade 3 [2]: 0 n (%)
- Vomiting, Grade 4 [2]: 0 n (%)
- Vomiting, Grade 5 [2]: 0 n (%)
- Vomiting, Total [2]: 2 (33.3) n (%)
- Vomiting, ≥Grade 3 [2]: 0 n (%)
- Patients with AEs (Overall (N = 19)): 19 (100) n, (%)
- Patients with AEs that had an outcome of death (Overall (N = 19)): 1 (5.3) n, (%)
- Patients with AEs that led to study treatment discontinuation (Overall (N = 19)): 3 (15.8) n, (%)
- Patients with Grade ≥ 3 AEs (Overall (N = 19)): 9 (47.4) n, (%)
- Patients with SAEs (Overall (N = 19)): 8 (42.1) n, (%)
- Patients with treatment-related AEs (Overall (N = 19)): 17 (89.5) n, (%)
- Patients with treatment-related and Grade ≥ 3 AEs (Overall (N = 19)): 6 (31.6) n, (%)
- Patients who died during the study (all dose levels): 4
- Patients who experienced an AE during the study (all treated population, all 19 patients): 100.0%
- TRAE incidence: diarrhea [3]: 78.9%
- TRAE incidence: fatigue [3]: 21.1%
- TRAE incidence: nausea [3]: 21.1%
- TRAE incidence: vomiting [3]: 21.1%
- TRAEs considered ≥Grade 3 in severity [3]: 31.6%
- ≥Grade 3 TRAE incidence: diarrhea [3]: 26.3%
- Patients with an SAE considered related to study drug (all treated population, three of 19, diarrhea (200- and 150-mg BID), cardiac arrest (150 mg BID)): 15.8%
- Changes from baseline in clinical laboratory results and standard 12-lead ECG parameters (during the study): No clinically meaningful changes from baseline
- Patients who experienced an AE that led to study drug discontinuation (in total, all dose levels): 4
- Deaths >30 days after the last dose of study treatment, all due to clinical progression (of 4 deaths): 3
- Patients who experienced ≥1 SAE (overall population, 8 of 19): 42.1%
- Patients with an SAE Grade 3 or higher in severity (overall population, five patients): 26.3%
- SAE incidence: acute kidney injury (overall, 1 patient): 5.3%
- SAE incidence: back pain (overall, 1 patient): 5.3%
- SAE incidence: cardiac arrest (overall, 1 patient): 5.3%
- SAE incidence: cellulitis (overall, 1 patient): 5.3%
- SAE incidence: clostridium colitis (overall, 1 patient): 5.3%
- SAE incidence: dysphagia (overall, 1 patient): 5.3%
- ≥Grade 3 TRAE incidence: acute kidney injury (overall, 1 patient): 5.3%
- ≥Grade 3 TRAE incidence: cardiac arrest (overall, 1 patient): 5.3%
- ≥Grade 3 TRAE incidence: proteinuria (overall, 1 patient): 5.3%
- SAE incidence: diarrhea (overall, 2 patients): 10.5%
- SAE incidence: pyrexia (overall, 4 patients (2 each at 200 mg and 150 mg BID)): 21.1%
- Patients with diarrhea at a severity ≥Grade 3 (reduced dose of 150 mg BID): 2
- Patients with diarrhea (reduced dose of 150 mg BID, 4 of 6): 66.7%

— article PMC8426237, “A first-in-human phase I study of TAS0728, an oral covalent binding inhibitor of HER2, in patients with advanced solid tumors with HER2 or HER3 aberrations” (Investigational New Drugs, 2021)
